Tests used:
Type in all cases: biochemical
human Src enzyme = target: T1, human Src enzyme (Homo sapiens, UniProt P12931); assay: Src enzyme inhibitory activity (time-resolved fluorometry, biotinylated peptide phosphorylation); details: biotinylated peptide phosphorylation, read-out: SRC_IC50
T1 construct: purchased Carna Biosciences, Inc. 08-173
Summary of the method: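 Compounds were tested for blocking tyrosine phosphorylation of a biotinylated peptide substrate by recombinant human Src. Phosphorylated product was quantified by time-resolved fluorometry using europium cryptate and XL665 conjugates, and IC50 was calculated against the compound-free control.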

human Lck enzyme = target: T2, human Lck enzyme (Homo sapiens, UniProt P06239); assay: Lck enzyme inhibitory activity (time-resolved fluorometry, biotinylated peptide phosphorylation); details: biotinylated peptide phosphorylation, read-out: LCK_IC50
T2 construct: purchased Carna Biosciences, Inc. 08-170
Summary of the method: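 Readout pairs a europium cryptate-labelled anti-phosphotyrosine antibody with XL665-streptavidin, measured by time-resolved fluorescence. IC50 derived from percent inhibition against untreated controls.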

human Yes1 enzyme = target: T3, human Yes1 enzyme (Homo sapiens, UniProt P07947); assay: Yes1 enzyme inhibitory activity (time-resolved fluorometry, biotinylated peptide phosphorylation); details: biotinylated peptide phosphorylation, read-out: YES_IC50
T3 construct: made in house
Summary of the method: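 Inhibition was expressed against a compound-free control to give IC50, using TR-FRET read-out (Eu-cryptate anti-pTyr antibody, streptavidin-XL665).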

T3 sequence (P07947 whole entry): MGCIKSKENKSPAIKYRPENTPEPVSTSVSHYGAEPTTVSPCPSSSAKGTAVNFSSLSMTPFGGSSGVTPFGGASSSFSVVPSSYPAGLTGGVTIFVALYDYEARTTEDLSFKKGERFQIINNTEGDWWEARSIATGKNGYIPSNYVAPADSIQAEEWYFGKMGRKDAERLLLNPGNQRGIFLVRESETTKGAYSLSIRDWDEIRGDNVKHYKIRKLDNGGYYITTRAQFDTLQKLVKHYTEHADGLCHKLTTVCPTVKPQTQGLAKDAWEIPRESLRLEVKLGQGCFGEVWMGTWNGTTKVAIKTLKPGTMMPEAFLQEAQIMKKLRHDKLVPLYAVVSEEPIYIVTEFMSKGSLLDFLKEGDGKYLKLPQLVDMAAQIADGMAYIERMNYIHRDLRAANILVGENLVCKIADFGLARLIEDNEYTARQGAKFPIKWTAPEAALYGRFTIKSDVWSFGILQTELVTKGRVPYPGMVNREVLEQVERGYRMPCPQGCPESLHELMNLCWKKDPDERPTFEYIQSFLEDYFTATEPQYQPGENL
T1 sequence (P12931 whole entry): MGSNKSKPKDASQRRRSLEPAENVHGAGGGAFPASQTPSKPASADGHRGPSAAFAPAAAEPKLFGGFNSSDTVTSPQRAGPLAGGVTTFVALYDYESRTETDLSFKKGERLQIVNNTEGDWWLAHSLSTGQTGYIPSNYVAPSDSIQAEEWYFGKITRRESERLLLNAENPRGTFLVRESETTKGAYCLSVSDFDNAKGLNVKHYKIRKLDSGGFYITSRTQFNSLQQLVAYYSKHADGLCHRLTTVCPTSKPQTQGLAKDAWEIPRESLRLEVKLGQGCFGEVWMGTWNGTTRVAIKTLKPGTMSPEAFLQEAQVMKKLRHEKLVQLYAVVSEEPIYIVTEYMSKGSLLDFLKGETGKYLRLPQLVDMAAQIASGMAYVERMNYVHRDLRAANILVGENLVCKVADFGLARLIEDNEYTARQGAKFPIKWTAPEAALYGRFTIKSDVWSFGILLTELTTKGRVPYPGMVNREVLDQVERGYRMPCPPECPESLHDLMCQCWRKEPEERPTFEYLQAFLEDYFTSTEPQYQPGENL
T2 sequence (P06239 whole entry): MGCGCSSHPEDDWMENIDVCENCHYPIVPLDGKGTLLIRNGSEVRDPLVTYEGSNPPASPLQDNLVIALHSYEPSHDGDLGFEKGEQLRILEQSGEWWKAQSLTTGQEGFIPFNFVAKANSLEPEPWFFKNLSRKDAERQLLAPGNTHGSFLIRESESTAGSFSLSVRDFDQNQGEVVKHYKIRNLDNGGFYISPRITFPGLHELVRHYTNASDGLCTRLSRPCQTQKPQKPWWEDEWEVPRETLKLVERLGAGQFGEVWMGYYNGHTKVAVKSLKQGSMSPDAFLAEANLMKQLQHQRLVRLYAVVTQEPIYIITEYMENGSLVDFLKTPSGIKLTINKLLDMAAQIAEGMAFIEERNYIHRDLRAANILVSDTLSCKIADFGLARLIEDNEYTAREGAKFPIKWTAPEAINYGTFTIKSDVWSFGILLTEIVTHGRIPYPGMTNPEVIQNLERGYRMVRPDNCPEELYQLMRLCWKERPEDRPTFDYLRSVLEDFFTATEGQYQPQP

| IC50 (human Src enzyme) [nM] | IC50 (human Lck enzyme) [nM] | IC50 (human Yes1 enzyme) [nM] | Compound |
| --- | --- | --- | --- |
| 28 | 13 | 5.1 | Cc1cc(Oc2ccccc2F)ccc1-n1ncc(C(=O)c2cc3cc(OCC(F)F)c(NC4CCN(S(C)(=O)=O)CC4)cc3[nH]2)c1N [Example 4-23-017, [5-amino-1-[4-(2-fluorophenoxy)-2-methylphenyl]pyrazol-4-yl]-[5-(2,2-difluoroethoxy)-6-[(1-methylsulfonylpiperidin-4-yl)amino]-1H-indol-2-yl]methanone] |
| 18 | 6.5 | 1.4 | Cc1cc(Oc2ccccc2F)ccc1-n1ncc(C(=O)c2cc3cc(OCC(F)F)c(NC4CN(S(C)(=O)=O)C4)cc3[nH]2)c1N [Example 4-23-018, [5-amino-1-[4-(2-fluorophenoxy)-2-methylphenyl]pyrazol-4-yl]-[5-(2,2-difluoroethoxy)-6-[(1-methylsulfonylazetidin-3-yl)amino]-1H-indol-2-yl]methanone] |
| 28 | 6.4 | 1.8 | Cc1cc(Oc2ccccc2F)cc(F)c1-n1ncc(C(=O)c2cc3cc(OCC(F)F)c(NC4COC4)cc3[nH]2)c1N [Example 4-23-019, [5-amino-1-[2-fluoro-4-(2-fluorophenoxy)-6-methylphenyl]pyrazol-4-yl]-[5-(2,2-difluoroethoxy)-6-(oxetan-3-ylamino)-1H-indol-2-yl]methanone] |
| 30 | 3.8 | 1.4 | Cc1cc(Oc2ccccc2F)ncc1-n1ncc(C(=O)c2cc3cc(OCC(F)F)c(NC4COC4)cc3[nH]2)c1N [Example 4-23-020, [5-amino-1-[6-(2-fluorophenoxy)-4-methylpyridin-3-yl]pyrazol-4-yl]-[5-(2,2-difluoroethoxy)-6-(oxetan-3-ylamino)-1H-indol-2-yl]methanone] |
| 21 | 11 | 3.6 | Cc1cc(Oc2c(F)cccc2F)ncc1-n1ncc(C(=O)c2cc3cc(OCC(F)F)c(NC4CCN(S(C)(=O)=O)CC4)cc3[nH]2)c1N [Example 4-23-021, [5-amino-1-[6-(2,6-difluorophenoxy)-4-methylpyridin-3-yl]pyrazol-4-yl]-[5-(2,2-difluoroethoxy)-6-[(1-methylsulfonylpiperidin-4-yl)amino]-1H-indol-2-yl]methanone] |
| 24 | 8 | 1.3 | Cc1cc(Oc2c(F)cccc2F)ncc1-n1ncc(C(=O)c2cc3cc(OCC(F)F)c(NC4CN(S(C)(=O)=O)C4)cc3[nH]2)c1N [Example 4-23-022, {5-amino-1-[6-(2,6-difluorophenoxy)-4-methylpyridin-3-yl]pyrazol-4-yl}-[5-(2,2-difluoroethoxy)-6-[(1-methylsulfonylazetidin-3-yl)amino]-1H-indol-2-yl]methanone] |
| 17 | 5.8 | 0.45 | Cc1cc(Oc2ccccc2F)ccc1-n1ncc(C(=O)c2cc3cc(OC(F)F)c(NC4CN(S(C)(=O)=O)C4)cc3[nH]2)c1N [Example 4-23-023, [5-amino-1-[4-(2-fluorophenoxy)-2-methylphenyl]pyrazol-4-yl]-[5-(difluoromethoxy)-6-[(1-methylsulfonylazetidin-3-yl)amino]-1H-indol-2-yl]methanone] |
| 53 | 13 | 7.2 | Cc1cc(Oc2ccccc2F)cc(F)c1-n1ncc(C(=O)c2cc3cc(OC(F)F)c(NC4CN(S(C)(=O)=O)C4)cc3[nH]2)c1N [Example 4-23-024, [5-amino-1-[2-fluoro-4-(2-fluorophenoxy)-6-methylphenyl]pyrazol-4-yl]-[5-(difluoromethoxy)-6-[(1-methylsulfonylazetidin-3-yl)amino]-1H-indol-2-yl]methanone] |
| 30 | 5.6 | 1.8 | Cc1cc(Oc2ccccc2F)ncc1-n1ncc(C(=O)c2cc3cc(OC(F)F)c(NC4CN(S(C)(=O)=O)C4)cc3[nH]2)c1N [Example 4-23-025, [5-amino-1-[6-(2-fluorophenoxy)-4-methylpyridin-3-yl]pyrazol-4-yl]-[5-(difluoromethoxy)-6-[(1-methylsulfonylazetidin-3-yl)amino]-1H-indol-2-yl]methanone] |
| 50 | 19 | 4.5 | Cc1cc(Oc2ccccc2F)ncc1-n1ncc(C(=O)c2cc3cc(OC(F)F)c(NC4CCN(S(C)(=O)=O)CC4)cc3[nH]2)c1N [Example 4-23-026, [5-amino-1-[6-(2-fluorophenoxy)-4-methylpyridin-3-yl]pyrazol-4-yl]-[5-(difluoromethoxy)-6-[(1-methylsulfonylpiperidin-4-yl)amino]-1H-indol-2-yl]methanone] |
| 16 | 7.6 | 1.9 | Cc1cc(Oc2ccccc2F)cc(F)c1-n1ncc(C(=O)c2cc3cc(OCC(F)F)c(NC4CN(S(C)(=O)=O)C4)cc3[nH]2)c1N [Example 4-23-027, [5-amino-1-[2-fluoro-4-(2-fluorophenoxy)-6-methylphenyl]pyrazol-4-yl]-[5-(2,2-difluoroethoxy)-6-[(1-methylsulfonylazetidin-3-yl)amino]-1H-indol-2-yl]methanone] |
| 70 | 41 | 20 | Cc1cc(Oc2ccccc2F)cc(F)c1-n1ncc(C(=O)c2cc3cc(OCC(F)F)c(NC4CCN(S(C)(=O)=O)CC4)cc3[nH]2)c1N [Example 4-23-028, [5-amino-1-[2-fluoro-4-(2-fluorophenoxy)-6-methylphenyl]pyrazol-4-yl]-[5-(2,2-difluoroethoxy)-6-[(1-methylsulfonylpiperidin-4-yl)amino]-1H-indol-2-yl]methanone] |
| 34 | 6.1 | 4.7 | Cc1cc(Oc2c(F)cccc2F)ncc1-n1ncc(C(=O)c2cc3cc(OCC(F)F)c(-n4c(C)cc(=O)[nH]c4=O)cc3[nH]2)c1N [Example 4-23-029, 1-{2-{5-amino-1-[6-(2,6-difluorophenoxy)-4-methylpyridin-3-yl]pyrazole-4-carbonyl}-5-(2,2-difluoroethoxy)-1H-indol-6-yl}-6-methylpyrimidine-2,4-dione] |
| 6.4 | 3.8 | 1.4 | Cc1cc(Oc2ccccc2F)ccc1-n1ncc(C(=O)c2cc3cc(OCC(F)F)c(-n4c(C)cc(=O)[nH]c4=O)cc3[nH]2)c1N [Example 4-23-030, 1-[2-[5-amino-1-[4-(2-fluorophenoxy)-2-methylphenyl]pyrazole-4-carbonyl]-5-(2,2-difluoroethoxy)-1H-indol-6-yl]-6-methylpyrimidine-2,4-dione] |
| 14 | 5.2 | 1.5 | Cc1cc(Oc2ccccc2F)ccc1-n1ncc(C(=O)c2cc3cc(OC(F)F)c(-n4c(C)cc(=O)[nH]c4=O)cc3[nH]2)c1N [Example 4-23-031, 1-[2-[5-amino-1-[4-(2-fluorophenoxy)-2-methylphenyl]pyrazole-4-carbonyl]-5-(difluoromethoxy)-1H-indol-6-yl]-6-methylpyrimidine-2,4-dione] |
| 17 | 2.5 | 0.58 | Cc1cc(Oc2c(F)cccc2F)ncc1-n1ncc(C(=O)c2cc3cc(OCC(F)F)c(N4C(=O)NC(C)(C)C4=O)cc3[nH]2)c1N [Example 4-23-032, 3-{2-{5-amino-1-[6-(2,6-difluorophenoxy)-4-methylpyridin-3-yl]pyrazole-4-carbonyl}-5-(2,2-difluoroethoxy)-1H-indol-6-yl}-5,5-dimethylimidazolidine-2,4-dione] |
| 6.1 | 2.1 | 0.5 | Cc1cc(Oc2ccccc2F)ccc1-n1ncc(C(=O)c2cc3cc(OCC(F)F)c(N4C(=O)NC(C)(C)C4=O)cc3[nH]2)c1N [Example 4-23-033, 3-[2-[5-amino-1-[4-(2-fluorophenoxy)-2-methylphenyl]pyrazole-4-carbonyl]-5-(2,2-difluoroethoxy)-1H-indol-6-yl]-5,5-dimethylimidazolidine-2,4-dione] |
| 54 | 6.7 | 1.5 | Cc1cc(Oc2c(F)cccc2F)ncc1-n1ncc(C(=O)c2cc3cc(OC(F)F)c(N4C(=O)NC(C)(C)C4=O)cc3[nH]2)c1N [Example 4-23-034, 3-[2-[5-amino-1-[6-(2,6-difluorophenoxy)-4-methylpyridin-3-yl]pyrazole-4-carbonyl]-5-(difluoromethoxy)-1H-indol-6-yl]-5,5-dimethylimidazolidine-2,4-dione] |
| 30 | 7 | 0.63 | Cc1cc(Oc2ccccc2F)ccc1-n1ncc(C(=O)c2cc3cc(OC(F)F)c(N4C(=O)NC(C)(C)C4=O)cc3[nH]2)c1N [Example 4-23-035, 3-[2-[5-amino-1-[4-(2-fluorophenoxy)-2-methylphenyl]pyrazole-4-carbonyl]-5-(difluoromethoxy)-1H-indol-6-yl]-5,5-dimethylimidazolidine-2,4-dione] |
| 31 | 6.4 | 1 | Cc1cc(Oc2c(F)cccc2F)ncc1-n1ncc(C(=O)c2cc3cc(OCC(F)F)c(N4C(=O)C(C)(C)NC4=S)cc3[nH]2)c1N [Example 4-23-036, 3-{2-{5-amino-1-[6-(2,6-difluorophenoxy)-4-methylpyridin-3-yl]pyrazole-4-carbonyl}-5-(2,2-difluoroethoxy)-1H-indol-6-yl}-5,5-dimethyl-2-sulfanylideneimidazolidin-4-one] |
| 12 | 6.7 | 0.76 | Cc1cc(Oc2ccccc2F)ccc1-n1ncc(C(=O)c2cc3cc(OCC(F)F)c(N4C(=O)C(C)(C)NC4=S)cc3[nH]2)c1N [Example 4-23-037, 3-[2-[5-amino-1-[4-(2-fluorophenoxy)-2-methylphenyl]pyrazole-4-carbonyl]-5-(2,2-difluoroethoxy)-1H-indol-6-yl]-5,5-dimethyl-2-sulfanylideneimidazolidin-4-one] |

Reference: US10479780B2, “Aminopyrazole derivatives” (Chugai Seiyaku Kabushiki Kaisha, priority 2015, dated 2019)
